Data reported in US11059823B2, “Small molecule inhibitors of the JAK family of kinases” (Janssen Pharmaceutica NV, priority 2016, dated 2021).
pIC50: −log10 of the molar value.

Experiments:
JAK1-JH1JH2 = JAK1-JH1JH2 (Homo sapiens (Human), UniProt P23458); assay: Enzymatic inhibition assay (HTMS), JAK1; type: biochemical; conditions: 12.5 μM ATP; read-out: JAK1_JH1JH2 IC50
Text: (§1) JAK1-JH1JH2 (574-1154 with a His-GST Tag and a C-terminal tev (ENLYFQ-G) cleavage site), JAK3-JH1JH2 (512-1124 with a GST Tag and a C-terminal tev (ENLYFQ-G) cleavage site), and Tyk2-JH1JH2 (8H_tev_580-1182-C936A-C1142A with a C-terminal tev (ENLYFQ-G) cleavage site) were purified internally. […] LC/MS grade water and acetonitrile (ACN), were purchased from HoneyWell, Burdick & Jackson (Muskegon, Mich., USA). Dimethylsulfoxide 99.8% (DMSO) and trifluoroacetic acid 99.5% (TFA) were purchased from EMD Chemical (Gibbstown, N.J., USA). Adenosine triphosphate (ATP), 4-morpholinepropanesulfonic acid (MOPS), magnesium chloride (MgCl2), ethylenediaminetetraacetic acid (EDTA), dithiothreitol (DTT), formic acid >95% (FA) and Tween-20 were purchased from Sigma (St Louis, Mo., USA). 384-well polypropylene plates, Cat#781280 were purchased from Greiner (Monroe, N.C.), RapidFire™ cartridge A C4 Column (Agilent Technologies, Santa Clara, Calif.). […]
(§2) 11-point dosing series were made for each compound by serially diluting 1:3 or 1:4 in DMSO, with point 12 being a DMSO control. […] Compound inhibition was assessed by a decrease of the phosphorylated product levels in sample wells compared to the non-inhibited enzyme reaction. […]

JAK2-JH1JH2 = JAK2-JH1JH2 (Homo sapiens (Human), UniProt O60674); assay: Enzymatic inhibition assay (HTMS), JAK2; type: biochemical; conditions: 30 μM ATP; read-out: JAK2_I_JH1JH2 IC50
Text: as §1, §2

physchem = conditions: thermodynamic from solid
IL-2 pSTAT5 (JAK1/JAK3) = IL-2 pSTAT5 (JAK1/JAK3) cellular assay in PBMCs (AlphaLISA); type: cell-based; conditions: PBMC, IL-2 5 ng/mL
Experimental: For all compounds tested, there was measured inhibition of STAT phosphorylation with all three stimuli.
The AlphaLISA assay (based on Alpha Technology from PerkinElmer) was performed by first plating freshly thawed PBMCs (Biological Specialty Corporation) in 384-well plates at 30,000 cells per 4 μL per well in HBSS (Hanks' Balanced Salt Solution) containing 0.1% IgG (immunoglobulin G)-free, protease-free BSA (bovine serum albumin) (Jackson ImmunoResearch Cat. No. 001-000-161). The cells were then treated with 2 μL/well of compounds diluted in DMSO at half-log titrated concentrations, with a highest test concentration of 10 μM and 0.5% final DMSO concentration, for thirty minutes at 37° C. […] The cellular reactions were terminated by the addition of 2 μL/well of lysis buffer (PerkinElmer Cat. No. ALSU-PST5-A10K) followed by an incubation of five minutes at room temperature. […] Finally, the plates were read on a PerkinElmer EnVision for detection of the time-resolved fluorescence signal. The percentage of IL-2-dependent pSTAT5 inhibition was determined at the compound test concentrations; and for each compound, a dose curve was generated and the IC50 was calculated. Compound IC50 was calculated by nonlinear regression, sigmoidal dose response analysis of the half-log dilution titration curve of the compound concentration vs. Alpha signal. […]

JAK3-JH1JH2 = JAK3-JH1JH2 (Homo sapiens (Human), UniProt P52333); assay: Enzymatic inhibition assay (HTMS), JAK3; type: biochemical; conditions: 150 μM ATP; read-out: JAK3_I_JH1JH2 IC50
Text: as §1, §2

Tyk2-JH1JH2 = Tyk2-JH1JH2 (Homo sapiens (Human), UniProt P29597, C1142A/C936A); assay: Enzymatic inhibition assay (HTMS), Tyk2; type: biochemical; conditions: 50 μM ATP; read-out: Tyk2_I_JH1JH2 IC50
Text: as §1, §2

Chain of JAK1-JH1JH2 (P23458 574-1154): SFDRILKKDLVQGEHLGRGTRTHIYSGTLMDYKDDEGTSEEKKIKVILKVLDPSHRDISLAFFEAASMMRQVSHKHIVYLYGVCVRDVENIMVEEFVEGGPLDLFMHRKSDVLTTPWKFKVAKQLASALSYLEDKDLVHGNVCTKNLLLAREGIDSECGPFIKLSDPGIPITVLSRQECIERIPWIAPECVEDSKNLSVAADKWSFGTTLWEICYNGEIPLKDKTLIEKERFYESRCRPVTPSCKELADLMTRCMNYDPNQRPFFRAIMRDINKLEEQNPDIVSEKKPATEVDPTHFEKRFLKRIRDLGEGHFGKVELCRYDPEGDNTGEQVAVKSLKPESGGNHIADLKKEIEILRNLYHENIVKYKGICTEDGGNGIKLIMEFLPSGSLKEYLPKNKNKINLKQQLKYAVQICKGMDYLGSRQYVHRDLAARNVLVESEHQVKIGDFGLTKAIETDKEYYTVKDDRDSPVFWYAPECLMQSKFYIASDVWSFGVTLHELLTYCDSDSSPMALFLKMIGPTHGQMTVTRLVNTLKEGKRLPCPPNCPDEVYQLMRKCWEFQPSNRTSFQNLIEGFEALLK
Chain of JAK3-JH1JH2 (P52333 512-1124): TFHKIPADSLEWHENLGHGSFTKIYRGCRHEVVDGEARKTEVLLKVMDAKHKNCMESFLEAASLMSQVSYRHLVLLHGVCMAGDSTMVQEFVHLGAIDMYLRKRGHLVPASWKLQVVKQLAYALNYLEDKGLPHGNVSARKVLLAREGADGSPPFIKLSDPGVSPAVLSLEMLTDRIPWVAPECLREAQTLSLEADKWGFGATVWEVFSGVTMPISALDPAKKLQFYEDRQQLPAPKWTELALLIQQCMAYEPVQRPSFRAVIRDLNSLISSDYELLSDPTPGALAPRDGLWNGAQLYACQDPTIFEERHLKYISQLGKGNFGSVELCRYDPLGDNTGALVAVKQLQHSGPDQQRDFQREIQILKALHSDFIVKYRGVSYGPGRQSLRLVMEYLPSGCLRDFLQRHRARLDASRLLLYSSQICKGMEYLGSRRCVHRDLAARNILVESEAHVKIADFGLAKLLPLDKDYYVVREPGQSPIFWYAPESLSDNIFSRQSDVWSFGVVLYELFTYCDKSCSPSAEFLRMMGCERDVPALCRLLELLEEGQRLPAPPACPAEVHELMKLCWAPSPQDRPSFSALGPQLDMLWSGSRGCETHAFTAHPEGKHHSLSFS
Chain of JAK2-JH1JH2 (O60674 532-1132): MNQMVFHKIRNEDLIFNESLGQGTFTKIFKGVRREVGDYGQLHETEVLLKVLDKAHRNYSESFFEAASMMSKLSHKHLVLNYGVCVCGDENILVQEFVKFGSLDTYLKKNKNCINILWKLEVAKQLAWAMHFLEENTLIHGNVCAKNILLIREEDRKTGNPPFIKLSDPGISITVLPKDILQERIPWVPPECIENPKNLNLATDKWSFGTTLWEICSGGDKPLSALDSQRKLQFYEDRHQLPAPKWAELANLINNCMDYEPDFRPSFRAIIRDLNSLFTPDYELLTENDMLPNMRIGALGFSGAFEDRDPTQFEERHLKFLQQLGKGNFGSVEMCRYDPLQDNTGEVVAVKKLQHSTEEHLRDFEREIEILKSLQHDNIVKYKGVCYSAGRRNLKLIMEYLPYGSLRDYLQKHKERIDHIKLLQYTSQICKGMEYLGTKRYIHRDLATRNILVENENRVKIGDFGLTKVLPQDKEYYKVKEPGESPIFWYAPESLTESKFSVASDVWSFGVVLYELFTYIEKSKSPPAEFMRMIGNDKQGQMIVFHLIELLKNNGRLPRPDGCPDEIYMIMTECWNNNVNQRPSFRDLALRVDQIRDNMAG
Chain of Tyk2-JH1JH2 (P29597 580-1182 C936A/C1142A): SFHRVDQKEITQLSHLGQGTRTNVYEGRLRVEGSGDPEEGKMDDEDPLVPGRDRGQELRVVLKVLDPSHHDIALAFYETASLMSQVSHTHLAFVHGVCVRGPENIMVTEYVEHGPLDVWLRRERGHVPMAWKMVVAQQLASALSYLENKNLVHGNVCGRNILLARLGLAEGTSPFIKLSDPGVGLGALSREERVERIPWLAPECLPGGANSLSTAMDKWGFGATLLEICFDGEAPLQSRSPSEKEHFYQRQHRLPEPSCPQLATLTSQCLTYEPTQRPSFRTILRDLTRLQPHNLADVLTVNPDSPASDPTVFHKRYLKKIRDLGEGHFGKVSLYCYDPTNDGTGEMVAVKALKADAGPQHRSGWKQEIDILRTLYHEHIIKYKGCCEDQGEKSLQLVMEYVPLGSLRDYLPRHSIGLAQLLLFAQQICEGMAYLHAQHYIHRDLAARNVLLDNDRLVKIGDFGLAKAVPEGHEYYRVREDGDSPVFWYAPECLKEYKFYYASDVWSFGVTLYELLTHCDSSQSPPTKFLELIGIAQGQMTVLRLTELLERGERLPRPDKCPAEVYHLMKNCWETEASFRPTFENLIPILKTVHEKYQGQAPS

In the case of `N#CC[C@H]1CC[C@H](n2c(-c3c[nH]cn3)nc3cnc4[nH]ccc4c32)CC1` [Ex. 2, 2-((1r,4r)-4-(2-(1H-Imidazol-4-yl)imidazo[4,5-d]pyrrolo[2,3-b]pyridin-1(6H)-yl)cyclohexyl)acetonitrile], the pIC50 (JAK1-JH1JH2) was 9.70, the pIC50 (JAK2-JH1JH2) was 9.00 and the solubility (physchem; pH 6.5, fassif) was > 400 µM. For the same compound, the solubility (physchem; simulated gastric fluid) was > 400 µM, the pIC50 (IL-2 pSTAT5 (JAK1/JAK3)) was 8.05 and the pIC50 (JAK3-JH1JH2) was 7.47. It also gave a pIC50 (Tyk2-JH1JH2) of 8.82.
